Data as given in PubChem BioAssay AID1845206 (Molecular Pharmacology Branch, DTP, NCI, 2023).
The source made the active and inactive calls. How the source made its calls: active means viability on the fitted dose curve at most 10% of control; inactive means the rest.

Test system: NCI-H1618 multicellular tumor spheroid viability
Assay: Anticancer human tumor NCI-H1618 cell line growth inhibition;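 further: spheroids exposed to agents for 7 days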
Settings: for IC50: curve of first compound; for viability, T/C: stronger effect = lower value
Summary of the method: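 Single agents and combinations were tested on spheroids built from tumor cells plus HUVEC and hMSC, at half-log dilutions starting at or near clinical Cmax, else 10 microM; final DMSO 0.25% (v/v).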

[1] = second compound 1 µM, first compound 0.0316 µM
[2] = second compound 1 µM, first compound 0.1 µM
[3] = second compound 1 µM, first compound 0.316 µM
[4] = second compound 1 µM, first compound 1 µM
[5] = second compound 1 µM, first compound 3.16 µM
[6] = second compound 1 µM, first compound 10 µM
[7] = second compound 3.16 µM, first compound 0.0316 µM
[8] = second compound 3.16 µM, first compound 0.1 µM
[9] = second compound 3.16 µM, first compound 0.316 µM
[10] = second compound 3.16 µM, first compound 1 µM
[11] = second compound 3.16 µM, first compound 3.16 µM
[12] = second compound 3.16 µM, first compound 10 µM
[13] = second compound 10 µM, first compound 0.0316 µM
[14] = second compound 10 µM, first compound 0.1 µM
[15] = second compound 10 µM, first compound 0.316 µM
[16] = second compound 10 µM, first compound 1 µM
[17] = second compound 10 µM, first compound 3.16 µM
[18] = second compound 10 µM, first compound 10 µM
[19] = second compound 31.6 µM, first compound 0.0316 µM
[20] = second compound 31.6 µM, first compound 0.1 µM
[21] = second compound 31.6 µM, first compound 0.316 µM
[22] = second compound 31.6 µM, first compound 1 µM
[23] = second compound 31.6 µM, first compound 3.16 µM
[24] = second compound 31.6 µM, first compound 10 µM
[25] = second compound 100 µM, first compound 0.0316 µM
[26] = second compound 100 µM, first compound 0.1 µM
[27] = second compound 100 µM, first compound 0.316 µM
[28] = second compound 100 µM, first compound 1 µM
[29] = second compound 100 µM, first compound 3.16 µM
[30] = second compound 100 µM, first compound 10 µM

## Cc1cc(C)c(CNC(=O)c2cc(-c3ccc(CN4CCOCC4)cc3)cc3c2cnn3C2CCCC2)c(=O)[nH]1 + Cn1nnc2c(C(N)=O)ncn2c1=O
Second compound 1 µM
  IC50: > 10 µM
Second compound 3.16 µM
  IC50: < 0.0316 µM
Second compound 10 µM
  IC50: < 0.0316 µM
Second compound 31.6 µM
  IC50: < 0.0316 µM
Second compound 100 µM
  IC50: < 0.0316 µM
[1]
  viability, T/C: 88.9%
[2]
  viability, T/C: 82.9%
[3]
  viability, T/C: 89.8%
[4]
  outcome: inactive
[5]
  viability, T/C: 82.3%
[6]
  viability, T/C: 78.8%
[7]
  viability, T/C: 24.3%
[8]
  viability, T/C: 13.1%
[9]
  viability, T/C: 16.6%
[10]
  viability, T/C: 22%
[11]
  viability, T/C: 14.7%
[12]
  viability, T/C: 19.3%
[13]
  viability, T/C: 4.25%
[14]
  viability, T/C: 19.8%
[15]
  viability, T/C: 10.5%
[16]
  viability, T/C: 3.64%
[17]
  viability, T/C: 5.17%
[18]
  viability, T/C: 4.06%
[19]
  viability, T/C: 18.2%
[20]
  viability, T/C: 20.3%
[21]
  viability, T/C: 20.4%
[22]
  viability, T/C: 5.16%
[23]
  viability, T/C: 13.7%
[24]
  viability, T/C: 12%
[25]
  viability, T/C: 34.9%
[26]
  viability, T/C: 63.6%
[27]
  viability, T/C: 52.6%
[28]
  viability, T/C: 46.8%
[29]
  viability, T/C: 66.2%
[30]
  viability, T/C: 44.2%

## Cc1sc2c(c1C)C(c1ccc(Cl)cc1)=NC(CC(=O)Nc1ccc(O)cc1)c1nnc(C)n1-2 (stereo not given) + Cn1nnc2c(C(N)=O)ncn2c1=O
Second compound 1 µM
  IC50: 0.783 µM
Second compound 3.16 µM
  IC50: < 0.00949 µM
Second compound 10 µM
  IC50: < 0.00949 µM
Second compound 31.6 µM
  IC50: < 0.00949 µM
Second compound 100 µM
  IC50: 0.146 µM
Second compound 1 µM, first compound 0.00949 µM
  viability, T/C: 97.7%
Second compound 1 µM, first compound 0.03 µM
  viability, T/C: 20.7%
Second compound 1 µM, first compound 0.0949 µM
  viability, T/C: 90%
Second compound 1 µM, first compound 0.3 µM
  viability, T/C: 72%
Second compound 1 µM, first compound 0.949 µM
  viability, T/C: 45.9%
Second compound 1 µM, first compound 3 µM
  viability, T/C: 20.5%
Second compound 3.16 µM, first compound 0.00949 µM
  viability, T/C: 19.5%
Second compound 3.16 µM, first compound 0.03 µM
  viability, T/C: 35.3%
Second compound 3.16 µM, first compound 0.0949 µM
  viability, T/C: 49.1%
Second compound 3.16 µM, first compound 0.3 µM
  viability, T/C: 22.8%
Second compound 3.16 µM, first compound 0.949 µM
  viability, T/C: 5.18%
Second compound 3.16 µM, first compound 3 µM
  viability, T/C: 5.41%
Second compound 10 µM, first compound 0.00949 µM
  viability, T/C: 6.33%
Second compound 10 µM, first compound 0.03 µM
  viability, T/C: 21.3%
Second compound 10 µM, first compound 0.0949 µM
  viability, T/C: 5.98%
Second compound 10 µM, first compound 0.3 µM
  viability, T/C: 18.9%
Second compound 10 µM, first compound 0.949 µM
  viability, T/C: 2.4%
Second compound 10 µM, first compound 3 µM
  viability, T/C: 1.94%
Second compound 31.6 µM, first compound 0.00949 µM
  viability, T/C: 7.34%
Second compound 31.6 µM, first compound 0.03 µM
  viability, T/C: 9.11%
Second compound 31.6 µM, first compound 0.0949 µM
  viability, T/C: 17.6%
Second compound 31.6 µM, first compound 0.3 µM
  viability, T/C: 4.34%
Second compound 31.6 µM, first compound 0.949 µM
  viability, T/C: 1.89%
Second compound 31.6 µM, first compound 3 µM
  viability, T/C: 1.29%
Second compound 100 µM, first compound 0.00949 µM
  viability, T/C: 53.6%
Second compound 100 µM, first compound 0.03 µM
  viability, T/C: 78.7%
Second compound 100 µM, first compound 0.0949 µM
  viability, T/C: 70.3%
Second compound 100 µM, first compound 0.3 µM
  viability, T/C: 20.8%
Second compound 100 µM, first compound 0.949 µM
  viability, T/C: 6.16%
Second compound 100 µM, first compound 3 µM
  viability, T/C: 0.99%

## [2H]c1nc(C)nc([2H])c1-c1cc(NC[C@@H](C)c2cccc3c(C(=O)NC)ccnc23)ncn1 + Cn1nnc2c(C(N)=O)ncn2c1=O
Second compound 1 µM
  IC50: > 10 µM
Second compound 3.16 µM
  IC50: < 0.0316 µM
Second compound 10 µM
  IC50: < 0.0316 µM
Second compound 31.6 µM
  IC50: < 0.0316 µM
Second compound 100 µM
  IC50: < 0.0316 µM
[1]
  viability, T/C: 91.3%
[2]
  viability, T/C: 91.9%
[3]
  viability, T/C: 85.3%
[4]
  viability, T/C: 85.3%
[5]
  viability, T/C: 89.2%
[6]
  viability, T/C: 89.3%
[7]
  viability, T/C: 33.1%
[8]
  viability, T/C: 29.5%
[9]
  viability, T/C: 21.9%
[10]
  viability, T/C: 28.1%
[11]
  viability, T/C: 13.1%
[12]
  viability, T/C: 27.3%
[13]
  viability, T/C: 4.05%
[14]
  viability, T/C: 4.95%
[15]
  viability, T/C: 5.87%
[16]
  viability, T/C: 7.24%
[17]
  viability, T/C: 4.35%
[18]
  viability, T/C: 11.5%
[19]
  viability, T/C: 20.8%
[20]
  viability, T/C: 19.9%
[21]
  viability, T/C: 11.3%
[22]
  viability, T/C: 15.1%
[23]
  viability, T/C: 6.28%
[24]
  viability, T/C: 5.54%
[25]
  viability, T/C: 61.9%
[26]
  viability, T/C: 36.3%
[27]
  viability, T/C: 22.1%
[28]
  viability, T/C: 59%
[29]
  viability, T/C: 46.6%
[30]
  viability, T/C: 34.6%
